Assay results taken from ChEMBL document CHEMBL4138065, “Protein-ligand (un)binding kinetics as a new paradigm for drug discovery at the crossroad between experiments and modelling” (Medchemcomm, 2017).

These molecules were tested against T1, C5a anaphylatoxin chemotactic receptor 1 (Homo sapiens) (UniProt P21730) (assay: Antagonist activity at of C5aR in human macrophages assessed as half life of residence time for maintaining reduction in C5a-induced macrophage response).
T1 sequence (whole entry): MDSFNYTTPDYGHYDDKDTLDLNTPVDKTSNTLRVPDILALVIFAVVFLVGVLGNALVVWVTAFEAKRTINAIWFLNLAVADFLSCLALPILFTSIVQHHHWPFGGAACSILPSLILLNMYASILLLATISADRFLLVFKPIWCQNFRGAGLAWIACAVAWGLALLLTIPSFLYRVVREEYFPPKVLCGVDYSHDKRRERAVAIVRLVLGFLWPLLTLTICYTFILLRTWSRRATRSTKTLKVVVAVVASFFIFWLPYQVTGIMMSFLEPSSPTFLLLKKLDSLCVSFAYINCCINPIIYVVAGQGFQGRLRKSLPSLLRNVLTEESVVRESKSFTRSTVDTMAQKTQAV
Format: functional

Row | Compound | T1/2 [h]
1 | CC(=O)N[C@@H](Cc1ccccc1)C(=O)N[C@H]1CCCNC(=O)[C@H](CCCN=C(N)N)NC(=O)[C@H](Cc2c[nH]c3ccccc23)NC(=O)[C@@H](CC2CCCCC2)NC(=O)[C@@H]2CCCN2C1=O | 20
2 | COc1ccc2c(c1)C(C(=O)N(Cc1ccc(N(C)C)cc1)c1ccc(C(C)C)cc1)CCC2 (stereo not drawn) | 1 to 3
3 | CCc1cccc(CC)c1-c1cc(OC(C)C)c2c(n1)CCCC2Nc1ccccc1CCO (stereo not drawn) | 1 to 3
